From patent publication US10722514B2 (FLX Bio, Inc., priority 2017, dated 2020)
Structures can show the parent of a compound that is named as a salt. Where two headings read alike, the source gives them in different places.

Target: T1, recombinant full-length USP7 (Homo sapiens, UniProt Q93009)
T1 construct: A 25 μl reaction volume containing recombinant full-length USP7 (62 pM)
Assay: USP7-mediated ubiquitin-rhodamine cleavage assay
Assay type: biochemical
Conditions: recombinant full-length USP7 62 pM, ubiquitin-rhodamine 100 nM, 1 hour reaction at room temperature
Procedure, shortened: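 IC50 values came from fluorescence measured after a 1 h room-temperature reaction of 62 pM enzyme with 100 nM ubiquitin-rhodamine, following 30 min compound preincubation; fits used four parameters.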

[1] = 30-minute pre-incubation, read-out: Potency (USP7 IC50)
[2] = 30-minute incubation with compound, read-out: Potency: USP7 IC50

T1 sequence (Q93009 whole entry): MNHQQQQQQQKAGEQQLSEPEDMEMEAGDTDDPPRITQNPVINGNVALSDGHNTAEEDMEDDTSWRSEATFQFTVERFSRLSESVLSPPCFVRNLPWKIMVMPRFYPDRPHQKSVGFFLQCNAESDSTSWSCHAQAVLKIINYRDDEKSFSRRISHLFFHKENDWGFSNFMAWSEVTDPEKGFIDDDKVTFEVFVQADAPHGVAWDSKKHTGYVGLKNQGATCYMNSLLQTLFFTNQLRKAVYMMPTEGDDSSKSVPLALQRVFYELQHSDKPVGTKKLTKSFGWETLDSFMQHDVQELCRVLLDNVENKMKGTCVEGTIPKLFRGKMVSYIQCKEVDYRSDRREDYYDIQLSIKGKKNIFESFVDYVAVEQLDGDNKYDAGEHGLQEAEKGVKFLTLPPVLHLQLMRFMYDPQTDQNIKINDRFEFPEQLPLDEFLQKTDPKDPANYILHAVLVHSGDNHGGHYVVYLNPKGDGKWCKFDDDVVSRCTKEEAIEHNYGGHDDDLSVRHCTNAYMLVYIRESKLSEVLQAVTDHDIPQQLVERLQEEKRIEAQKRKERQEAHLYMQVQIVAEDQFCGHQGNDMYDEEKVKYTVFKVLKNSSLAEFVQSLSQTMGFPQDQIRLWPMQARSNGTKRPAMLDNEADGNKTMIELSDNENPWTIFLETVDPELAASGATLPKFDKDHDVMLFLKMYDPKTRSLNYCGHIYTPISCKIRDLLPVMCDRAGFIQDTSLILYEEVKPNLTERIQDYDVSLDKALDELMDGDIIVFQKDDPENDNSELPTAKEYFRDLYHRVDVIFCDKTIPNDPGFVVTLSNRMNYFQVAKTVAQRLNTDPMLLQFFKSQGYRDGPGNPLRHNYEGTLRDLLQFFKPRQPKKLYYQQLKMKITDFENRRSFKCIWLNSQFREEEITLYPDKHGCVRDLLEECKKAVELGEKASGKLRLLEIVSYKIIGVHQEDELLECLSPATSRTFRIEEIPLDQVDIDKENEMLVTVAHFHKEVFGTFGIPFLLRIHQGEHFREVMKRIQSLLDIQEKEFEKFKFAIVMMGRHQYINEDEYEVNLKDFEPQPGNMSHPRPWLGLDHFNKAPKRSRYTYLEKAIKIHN

Row | Compound | IC50 [1] [nM] | IC50 [2] [nM]
1 | Cc1cc(Cl)cc(-c2ccnc3cc(Cn4c(=O)ccn(C)c4=O)sc23)c1OC1CCCN(C)C1 (stereo not shown) [Example 503, 3-[[7-[5-chloro-3-methyl-2-[(1-methyl-3-piperidyl)oxy]phenyl]thieno[3,2-b]pyridin-2-yl]methyl]-1-methyl-pyrimidine-2,4-dione] | < 1000 | 
2 | Cc1cc(Cl)cc(-c2ncnc3cc(CN4C(=O)CC(C)(C)C4=O)sc23)c1O[C@@H]1CNC[C@@H]1F [Example 380, 1-[[4-[5-chloro-2-[(3R,4S)-4-fluoropyrrolidin-3-yl]oxy-3-methyl-phenyl]thieno[3,2-d]pyrimidin-6-yl]methyl]-3,3-dimethyl-pyrrolidine-2,5-dione; 2,2,2-trifluoroacetic acid] |  | < 1000
3 | Cc1cc(Cl)cc(-c2ccnc3cc(Cn4c(=O)ccn(CC(F)(F)F)c4=O)sc23)c1O[C@@H]1CN(C2COC2)C[C@@H]1C [Example 606, 3-[[7-[5-chloro-3-methyl-2-[(3S,4S)-4-methyl-1-(oxetan-3-yl)pyrrolidin-3-yl]oxy-phenyl]thieno[3,2-b]pyridin-2-yl]methyl]-1-(2,2,2-trifluoroethyl)pyrimidine-2,4-dione] | < 1000 | 
4 | Cc1cc(Cl)cc(-c2ccnc3cc(CN4C(=O)CCNC4=O)sc23)c1OC1CCNCC1 [Example 222, 3-((7-(5-Chloro-3-methyl-2-(piperidin-4-yloxy)phenyl)thieno[3,2-b]pyridin-2-yl)methyl)dihydropyrimidine-2,4(1H,3H)-dione] |  | < 1000
5 | Cc1cc(Cl)cc(-c2ccnc3cc(Cn4c(=O)ccn(CC(F)(F)F)c4=O)sc23)c1O[C@@H]1CCN(Cc2cnoc2)C[C@@H]1C [Example 648, 3-[[7-[5-chloro-2-[[(3S,4R)-1-(isoxazol-4-ylmethyl)-3-methyl-4-piperidyl]oxy]-3-methyl-phenyl]thieno[3,2-b]pyridin-2-yl]methyl]-1-(2,2,2-trifluoroethyl)pyrimidine-2,4-dione] | < 1000 | 
6 | Cc1cc(Cl)cc(-c2ccnc3cc(Cn4c(=O)ccn(CC(F)(F)F)c4=O)sc23)c1O[C@H]1CCNC[C@@H]1F [Example 559, 3-[[7-[5-chloro-2-[[(3S,4S)-3-fluoro-4-piperidyl]oxy]-3-methyl-phenyl]thieno[3,2-b]pyridin-2-yl]methyl]-1-(2,2,2-trifluoroethyl)pyrimidine-2,4-dione] | < 1000 | 
7 | Cc1cc(Cl)cc(-c2ccnc3cc(Cn4c(=O)[nH]cc(F)c4=O)sc23)c1O[C@H]1CCCNC1 [Example 420, 3-[[7-[5-chloro-3-methyl-2-[[(3S)-3-piperidyl]oxy]phenyl]thieno[3,2-b]pyridin-2-yl]methyl]-5-fluoro-1H-pyrimidine-2,4-dione] | < 1000 | 
8 | 3-[[7-[5-chloro-2-[2-(3-hydroxyazetidin-1-yl)ethoxy]-3-methyl-phenyl]thieno[3,2- [Example 667] | < 1000 | 
9 | Cc1cc(Cl)cc(-c2ncnc3ccsc23)c1O[C@H]1CCCNC1 [Example 262, (S)-4-(5-Chloro-3-methyl-2-(piperidin-3-yloxy)phenyl)thieno[3,2-d]pyrimidine] |  | 10000 to 30000
10 | CCN1C[C@H]2C[C@@H]1[C@H](Oc1c(C)cc(Cl)cc1-c1ccnc3cc(Cn4c(=O)ccn(CC(F)(F)F)c4=O)sc13)C2 [Example 619, 3-[[7-[5-chloro-2-[[(1S,4R,5R)-3-ethyl-3-azabicyclo[2.2.1]heptan-5-yl]oxy]-3-methyl-phenyl]thieno[3,2-b]pyridin-2-yl]methyl]-1-(2,2,2-trifluoroethyl)pyrimidine-2,4-dione] | < 1000 | 
11 | Cc1cc(Cl)cc(-c2ncnc3cc(CN4C(=O)C5CCCN5C4=O)sc23)c1O[C@@H]1CNC[C@@H]1F (stereo partly drawn) [Example 160, 2-((4-(5-Chloro-2-(((3R,4S)-4-fluoropyrrolidin-3-yl)oxy)-3-methylphenyl)thieno[3,2-d]pyrimidin-6-yl)methyl)tetrahydro-1H-pyrrolo[1,2-c]imidazole-1,3(2H)-dione] |  | 1000 to 10000
12 | Cc1cc(Cl)cc(-c2ccnc3cc(Cn4c(=O)ccn(CC(F)(F)F)c4=O)sc23)c1O[C@@H]1CCNC[C@H]1C [Example 558, 3-[[7-[5-chloro-3-methyl-2-[[(3R,4R)-3-methyl-4-piperidyl]oxy]phenyl]thieno[3,2-b]pyridin-2-yl]methyl]-1-(2,2,2-trifluoroethyl)pyrimidine-2,4-dione] | < 1000 | 
13 | Cc1cc(Cl)cc(-c2ncnc3cc(CN4C(=O)C5C(C4=O)C5(C)C)sc23)c1O[C@@H]1CN(C)C[C@@H]1F (stereo partly drawn) [Example 348, 3-[[4-[5-chloro-2-[(3R,4S)-4-fluoro-1-methyl-pyrrolidin-3-yl]oxy-3-methyl-phenyl]thieno[3,2-d]pyrimidin-6-yl]methyl]-6,6-dimethyl-3-azabicyclo[3.1.0]hexane-2,4-dione dihydrochloride] |  | < 1000
14 | Cc1cc(Cl)cc(-c2ccnc3cc(Cn4c(=O)ccn(C)c4=O)sc23)c1O[C@H]1CCN(CCO)C[C@@H]1F [Example 483, 3-[[7-[5-chloro-2-[[(3S,4S)-3-fluoro-1-(2-hydroxyethyl)-4-piperidyl]oxy]-3-methyl-phenyl]thieno[3,2-b]pyridin-2-yl]methyl]-1-methyl-pyrimidine-2,4-dione; 2,2,2-trifluoroacetic acid] | < 1000 | 
15 | Cc1cc(Cl)cc(-c2ncnc3cc(CN4C(=O)COC4=O)sc23)c1O[C@@H]1CNC[C@@H]1F [Example 128, 3-((4-(5-Chloro-2-(((3R,4S)-4-fluoropyrrolidin-3-yl)oxy)-3-methylphenyl)thieno[3,2-d]pyrimidin-6-yl)methyl)oxazolidine-2,4-dione] |  | < 1000
16 | Cc1cc(Cl)cc(-c2ccnc3cc(Cn4c(=O)ccn(C)c4=O)sc23)c1OC1CCCN(CCC(F)(F)F)C1 (stereo not shown) [Example 507, 3-[[7-[5-chloro-3-methyl-2-[[1-(3,3,3-trifluoropropyl)-3-piperidyl]oxy]phenyl]thieno[3,2-b]pyridin-2-yl]methyl]-1-methyl-pyrimidine-2,4-dione] | < 1000 | 
17 | Cc1cc(Cl)cc(-c2ccnc3cc(CN4C(=O)CCC4C(F)(F)F)sc23)c1OC1CCNCC1 (stereo not shown) [Example 201, 1-((7-(5-Chloro-3-methyl-2-(piperidin-4-yloxy)phenyl)thieno[3,2-b]pyridin-2-yl)methyl)-5-(trifluoromethyl)pyrrolidin-2-one] |  | 1000 to 10000

The remaining lines, values ahead:

Row | IC50 [1] [nM] | IC50 [2] [nM] | Compound
18 |  | < 1000 | Cc1cc(Cl)cc(-c2ccnc3cc([C@H](C)N4C(=O)CCC4=O)sc23)c1O[C@H]1CCCNC1 [Example 241, 1-((S)-1-(7-(5-Chloro-3-methyl-2-(((S)-piperidin-3-yl)oxy)phenyl)thieno[3,2-b]pyridin-2-yl)ethyl)pyrrolidine-2,5-dione]
19 |  | < 1000 | CCC(O)c1cc2nccc(-c3cc(Cl)cc(C)c3OCC3(CC)CNC3)c2s1 (stereo not shown) [Example 38, 1-(7-(5-Chloro-2-((3-ethylazetidin-3-yl)methoxy)-3-methylphenyl)thieno[3,2-b]pyridin-2-yl)propan-1-ol]
20 | < 1000 |  | Cc1cc(Cl)cc(-c2ccnc3cc(Cn4c(=O)c(F)cn(C)c4=O)sc23)c1O[C@H]1CCCNC1 [Example 422, 3-[[7-[5-chloro-3-methyl-2-[[(3S)-3-piperidyl]oxy]phenyl]thieno[3,2-b]pyridin-2-yl]methyl]-5-fluoro-1-methyl-pyrimidine-2,4-dione]
21 |  | 1000 to 10000 | Cc1cc(Cl)cc(-c2ccnc3cc(CO)sc23)c1OCC1CNC1 [Example 19, (7-(2-(Azetidin-3-ylmethoxy)-5-chloro-3-methylphenyl)thieno[3,2-b]pyridin-2-yl)methanol]
22 |  | < 1000 | Cc1cc(Cl)cc(-c2ccnc3cc([C@H](C)N4C(=O)CCC4=O)sc23)c1O[C@@H]1CNC[C@@H]1F [Example 117, 1-((S)-1-(7-(5-Chloro-2-(((3R,4S)-4-fluoropyrrolidin-3-yl)oxy)-3-methylphenyl)thieno[3,2-b]pyridin-2-yl)ethyl)pyrrolidine-2,5-dione]
23 |  | < 1000 | Cc1cc(Cl)cc(-c2ccnc3cc(CN4C(=O)NC(C)(C)C4=O)sc23)c1O[C@@H]1CNC[C@@H]1F [Example 154, 3-((7-(5-Chloro-2-(((3R,4S)-4-fluoropyrrolidin-3-yl)oxy)-3-methylphenyl)thieno[3,2-b]pyridin-2-yl)methyl)-5,5-dimethylimidazolidine-2,4-dione]
24 |  | < 1000 | Cc1cc(Cl)cc(-c2ccnc3cc(CN4C(=O)C5C(C4=O)C5(C)C)sc23)c1O[C@@H]1CCNC[C@@H]1C (stereo partly drawn) [Example 366, 3-[[7-[5-chloro-3-methyl-2-[[(3S,4R)-3-methyl-4-piperidyl]oxy]phenyl]thieno[3,2-b]pyridin-2-yl]methyl]-6,6-dimethyl-3-azabicyclo[3.1.0]hexane-2,4-dione dihydrochloride]
25 |  | 1000 to 10000 | Cc1cc(Cl)cc(-c2ccnc3cc(CO)sc23)c1O[C@@H]1CNC[C@@H]1O [Example 78, (3S,4R)-4-(4-Chloro-2-(2-(hydroxymethyl)thieno[3,2-b]pyridin-7-yl)-6-methylphenoxy)pyrrolidin-3-ol]
26 |  | < 1000 | Cc1cc(Cl)cc(-c2ccnc3cc(CN4C(=O)C5C(C4=O)C5(C)C)sc23)c1O[C@@H]1CCNC[C@H]1F (stereo partly drawn) [Example 294, 3-[[7-[5-chloro-2-[[(3R,4R)-3-fluoro-4-piperidyl]oxy]-3-methyl-phenyl]thieno[3,2-b]pyridin-2-yl]methyl]-6,6-dimethyl-3-azabicyclo[3.1.0]hexane-2,4-dione; 2,2,2-trifluoroacetic acid]
27 |  | < 1000 | Cc1cc(Cl)cc(-c2ccnc3cc(Cn4c(=O)cc[nH]c4=O)sc23)c1OC1CCNCC1 [Example 184, 3-((7-(5-Chloro-3-methyl-2-(piperidin-4-yloxy)phenyl)thieno[3,2-b]pyridin-2-yl)methyl)pyrimidine-2,4(1H,3H)-dione]
28 |  | 1000 to 10000 | OCc1cc2nccc(-c3cc(Cl)cc(Br)c3OCC3CNC3)c2s1 [Example 21, (7-(2-(Azetidin-3-ylmethoxy)-3-bromo-5-chlorophenyl)thieno[3,2-b]pyridin-2-yl)methanol]
